Patent US8193218B2, “Aroyl-piperidine derivatives and method of treating disorders induced by substance P” (Novartis AG, priority 2002, dated 2012)

What was measured:
[1] = target: T1, binding of H^3-substance P to bovine retina (Bos taurus, UniProt F1MIX5); experiment: binding of H^3-substance P to bovine retina, radio receptor assay; conditions: read-out: in vitro values (IC50), inhibition of binding of H^3-substance P to bovine retina
T1 construct: from tissue; host or cells: bovine retina
Method: In addition, the binding of H^3-substance P to bovine retina in the radio receptor assay according to H. Bittiger, Ciba Foundation Symposium 91, 196-199 (1982) is inhibited with IC50 values of from approximately 1 nmol. For example, the following in vitro values of about 10 nM were obtained for the target compounds of Examples 1 and 2.

T1 sequence (F1MIX5 1-407): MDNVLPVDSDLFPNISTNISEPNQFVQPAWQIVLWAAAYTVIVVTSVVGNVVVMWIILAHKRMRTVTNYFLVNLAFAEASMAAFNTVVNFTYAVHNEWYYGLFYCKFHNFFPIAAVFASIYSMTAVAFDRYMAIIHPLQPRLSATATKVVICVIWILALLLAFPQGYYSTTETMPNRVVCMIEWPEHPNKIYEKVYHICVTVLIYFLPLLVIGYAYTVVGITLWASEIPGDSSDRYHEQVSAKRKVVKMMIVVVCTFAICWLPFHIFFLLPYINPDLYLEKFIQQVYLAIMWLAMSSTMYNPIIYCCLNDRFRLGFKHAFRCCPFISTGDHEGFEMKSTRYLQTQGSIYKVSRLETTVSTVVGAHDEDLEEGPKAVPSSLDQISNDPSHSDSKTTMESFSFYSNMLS

| melting point | IC50 [1] | Structure (SMILES) |
| --- | --- | --- |
| 223 to 225 °C | ~10 nM | O=C(N[C@H]1CCN(C(=O)c2cc(C(F)(F)F)cc(C(F)(F)F)c2)[C@H](Cc2ccc(Cl)cc2)C1)c1cc[n+]([O-])c2ccccc12 [Example 1, 1-Oxy-quinoline-4-carboxylic acid [(2R,4S)-1-(3,5-bis-trifluoromethyl-benzoyl)-2-(4-chloro-benzyl)-piperidin-4-yl]-amide] |
| 222 to 224 °C | ~10 nM | O=C(N[C@H]1CCN(C(=O)c2cc(C(F)(F)F)cc(C(F)(F)F)c2)[C@H](Cc2ccc(Cl)cc2)C1)c1cc(O)nc2ccccc12 [Example 2, 2-Hydroxy-quinoline-4-carboxylic acid [(2R,4S)-1-(3,5-bis-trifluoromethyl-benzoyl)-2-(4-chloro-benzyl)-piperidin-4-yl]-amide] |
